The source of these data is ChEMBL document CHEMBL4725363 (J Med Chem, 2020).

The nature of data set [1]: MRT (0 to t) in Sprague-Dawley rat at 5 mg/kg, po after 24 hrs by LC-MS/MS analysis. The format is ADME, organism-based. The settings on record: in vivo.
A short description of data set [2]: AUC (0 to t) in Sprague-Dawley rat at 2.5 mg/kg, iv after 24 hrs by LC-MS/MS analysis. The data set is classed as ADME, organism-based. More on the design: route intravenous, dose 2.5 mg/kg, time 24 hrs. The settings on record: in vivo.
Data set [3] has as its target T1, DNA topoisomerase 1 (Homo sapiens) (UniProt P11387).
T1 sequence (whole entry): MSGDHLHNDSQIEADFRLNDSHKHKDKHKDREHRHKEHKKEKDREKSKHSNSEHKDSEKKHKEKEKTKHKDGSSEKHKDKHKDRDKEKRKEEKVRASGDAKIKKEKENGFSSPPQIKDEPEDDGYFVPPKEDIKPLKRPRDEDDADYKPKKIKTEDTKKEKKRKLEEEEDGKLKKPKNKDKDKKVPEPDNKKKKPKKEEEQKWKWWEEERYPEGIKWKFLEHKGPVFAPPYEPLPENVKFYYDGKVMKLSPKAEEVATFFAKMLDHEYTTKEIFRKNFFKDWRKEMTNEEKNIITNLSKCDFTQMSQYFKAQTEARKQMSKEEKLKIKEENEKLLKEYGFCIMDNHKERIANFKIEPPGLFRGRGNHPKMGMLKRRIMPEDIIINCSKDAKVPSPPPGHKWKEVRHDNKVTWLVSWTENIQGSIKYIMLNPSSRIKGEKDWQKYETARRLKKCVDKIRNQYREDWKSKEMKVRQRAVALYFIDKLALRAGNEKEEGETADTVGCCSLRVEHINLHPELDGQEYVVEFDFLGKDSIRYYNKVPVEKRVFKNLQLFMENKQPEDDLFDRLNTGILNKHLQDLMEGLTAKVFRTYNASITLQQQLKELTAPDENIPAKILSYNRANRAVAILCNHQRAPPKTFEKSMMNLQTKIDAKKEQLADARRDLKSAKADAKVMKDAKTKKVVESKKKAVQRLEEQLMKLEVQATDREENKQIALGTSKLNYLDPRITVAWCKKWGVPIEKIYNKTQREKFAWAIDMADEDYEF
Nature of the data set: Inhibition of Top (unknown origin) mediated supercoiled DNA relaxation at 100 uM.

The subject of data set [4] is Rattus norvegicus. Briefly: Suppression of hypertension pressure in Wistar rat model of pulmonary hypertension assessed as reduction in MCT-induced wall thickness of small pulmonary arteries at 20 mg/kg/day, po for 3 weeks. The format is functional, organism-based.

Activity calls are given as the source filed them. The rule behind the calls is not given here.

The term MRT last denotes the average time that molecules of a dose stay in the body. The AUC(0-t) is exposure summed from dosing to a finite time, without extrapolation to infinity.

Turning to `COc1ccc2c3c([nH]c2c1)[C@@H]1N(CC3)C(=O)c2c(OC)cccc2N1C`, in data set [1], the MRT last at 24 h stood at 3.19 h. In data set [2], this molecule gave an AUC(0-t) at 24 h of 519 ng·h/mL. Besides, the inhibition result in data set [3] was “inactive”. Moreover, the outcome in data set [4] was Active.
